Test results from the NIST ThermoML archive (doi:10.1007/s10765-009-0625-z).

Key:
[1] = Liquid, Constant-volume piezometry
[2] = xn = mol fraction of the nth substance listed; settings: Liquid

c1ccc2[nH]ccc2c1 [1H-indole]
specific volume [m3/kg], [1]
Settings | 323.15 K | 333.15 K | 343.15 K | 353.15 K
100 kPa | 0.0009295 | 0.000936 | 0.0009428 | 0.0009499
10000 kPa | – | 0.0009315 | 0.0009381 | 0.0009449
20000 kPa | – | 0.0009273 | 0.0009335 | 0.0009402
30000 kPa | – | 0.0009228 | 0.0009292 | 0.0009358
40000 kPa | – | 0.0009192 | 0.0009249 | 0.0009313
50000 kPa | – | 0.0009157 | 0.0009209 | 0.0009273
60000 kPa | – | – | 0.0009173 | 0.0009231
70000 kPa | – | – | 0.000914 | 0.0009195
80000 kPa | – | – | 0.0009103 | 0.0009158
90000 kPa | – | – | – | 0.0009123
100000 kPa | – | – | – | 0.0009091
110000 kPa | – | – | – | 0.0009059

c1ccc2[nH]ccc2c1 [1H-indole] + c1ccc(-c2ccccc2)cc1
specific volume [m3/kg], [2], 100 kPa
Settings | 303.15 K | 313.15 K | 323.15 K | 333.15 K | 343.15 K | 353.15 K | 363.15 K
x1 = 0.25 | – | – | 0.0009769 | 0.0009848 | 0.0009924 | 0.001 | 0.001009
x1 = 0.5 | 0.0009477 | 0.000955 | 0.0009624 | 0.0009698 | 0.000977 | 0.0009848 | 0.0009924
x1 = 0.75 | 0.0009328 | 0.0009393 | 0.0009462 | 0.0009538 | 0.0009599 | 0.0009675 | 0.0009747
x1 = 1 | – | – | 0.0009295 | 0.000936 | 0.0009428 | 0.0009499 | –

specific volume [m3/kg], [2], 333.15 K, Constant-volume piezometry
Settings | x1 = 0.25 | x1 = 0.5 | x1 = 0.75 | x1 = 1
100 kPa | 0.0009848 | 0.0009698 | 0.0009538 | 0.000936
10000 kPa | 0.0009792 | 0.0009648 | 0.0009488 | 0.0009315
20000 kPa | 0.0009737 | 0.0009601 | 0.0009442 | 0.0009273
30000 kPa | – | 0.0009553 | 0.0009399 | 0.0009228
40000 kPa | – | 0.0009507 | 0.0009356 | 0.0009192
50000 kPa | – | 0.0009464 | 0.0009316 | 0.0009157
60000 kPa | – | 0.0009423 | 0.0009278 | –
70000 kPa | – | 0.0009384 | 0.0009241 | –
80000 kPa | – | 0.0009347 | 0.0009205 | –
90000 kPa | – | – | 0.0009171 | –
100000 kPa | – | – | 0.0009139 | –
110000 kPa | – | – | 0.0009108 | –
120000 kPa | – | – | 0.0009077 | –
130000 kPa | – | – | 0.0009047 | –
140000 kPa | – | – | 0.000902 | –
150000 kPa | – | – | 0.0008991 | –
160000 kPa | – | – | 0.0008965 | –
170000 kPa | – | – | 0.0008939 | –

Cc1ccc2ccccc2c1 [2-methylnaphthalene]
[1]
Settings | specific volume [m3/kg]
303.15 K, 100 kPa | 0.001001
313.15 K, 100 kPa | 0.001009
323.15 K, 100 kPa | 0.001017
333.14 K, 100 kPa | 0.001025
333.15 K, 100 kPa | 0.001025
333.15 K, 10000 kPa | 0.001018
333.15 K, 20000 kPa | 0.001012
333.15 K, 30000 kPa | 0.001007
333.15 K, 40000 kPa | 0.001001
333.15 K, 50000 kPa | 0.0009961
333.15 K, 60000 kPa | 0.0009915
333.15 K, 70000 kPa | 0.0009868
333.15 K, 80000 kPa | 0.0009826
333.15 K, 90000 kPa | 0.0009784
333.15 K, 100000 kPa | 0.0009749
343.15 K, 100 kPa | 0.001033
343.15 K, 10000 kPa | 0.001026
343.15 K, 20000 kPa | 0.00102
343.15 K, 30000 kPa | 0.001014
343.15 K, 40000 kPa | 0.001008
343.15 K, 50000 kPa | 0.001003
343.15 K, 60000 kPa | 0.0009977
343.15 K, 70000 kPa | 0.0009932
343.15 K, 80000 kPa | 0.0009885
343.15 K, 90000 kPa | 0.0009843
343.15 K, 100000 kPa | 0.0009802
343.15 K, 110000 kPa | 0.0009764
343.15 K, 120000 kPa | 0.0009725
343.15 K, 130000 kPa | 0.0009689
343.15 K, 140000 kPa | 0.0009655
353.15 K, 100 kPa | 0.001041

Cc1ccc2ccccc2c1 [2-methylnaphthalene] + c1ccc2[nH]ccc2c1
[2], 100 kPa, x2 = 0
Settings | specific volume [m3/kg]
303.15 K | 0.001001
313.15 K | 0.001009
323.15 K | 0.001017
333.15 K | 0.001025
343.15 K | 0.001033
353.15 K | 0.001041

[2], 333.15 K, Constant-volume piezometry, x2 = 0
Settings | specific volume [m3/kg]
100 kPa | 0.001025
10000 kPa | 0.001018
20000 kPa | 0.001012
30000 kPa | 0.001007
40000 kPa | 0.001001
50000 kPa | 0.0009961
60000 kPa | 0.0009915
70000 kPa | 0.0009868
80000 kPa | 0.0009826
90000 kPa | 0.0009784
100000 kPa | 0.0009749

c1ccccc1 [benzene]
Settings | specific volume [m3/kg]
[1], 293.15 K, 101.33 kPa | 0.001138

c1ccc(-c2ccccc2)cc1 [biphenyl]
[1]
Settings | specific volume [m3/kg]
333.15 K, 100 kPa | 0.0009985
343.15 K, 100 kPa | 0.001007
353.15 K, 100 kPa | 0.001015
353.15 K, 10000 kPa | 0.001008
353.15 K, 20000 kPa | 0.001002
353.15 K, 30000 kPa | 0.0009956
363.15 K, 100 kPa | 0.001024
363.16 K, 100 kPa | 0.001024
363.16 K, 10000 kPa | 0.001016
363.16 K, 20000 kPa | 0.00101
363.16 K, 30000 kPa | 0.001003
363.16 K, 40000 kPa | 0.000997
363.16 K, 50000 kPa | 0.0009917
363.16 K, 60000 kPa | 0.0009864
363.16 K, 70000 kPa | 0.0009815

c1ccc(-c2ccccc2)cc1 [biphenyl] + c1ccc2[nH]ccc2c1
Settings | specific volume [m3/kg]
[2], 333.15 K, 100 kPa, Constant-volume piezometry, x2 = 0 | 0.0009985

[2], 100 kPa, x2 = 0
Settings | specific volume [m3/kg]
333.15 K | 0.0009985
343.15 K | 0.001007
353.15 K | 0.001015
363.15 K | 0.001024
